Data set [1] deals with SMN2 full length and Δ7 mRNA. The data set can be described thus: Endogenous SMN2 mRNA end-point semi-quantitative RT-PCR splicing assay in cultured cells. Format: cell-based, human. The note with it: 24 hr, FIG. 5; for SMN2 FL mRNA (gel band) / SMN2 Δ7 mRNA (gel band): GM03813 Type 1 SMA patient fibroblasts, increasing concentrations; for SMN2 alternative splicing: Type 1 SMA patient fibroblasts, rising concentrations. The method, then: Endogenous SMN2 mRNA End-Point Semi-Quantitative RT-PCR Splicing Assay in Cultured Cells
The endpoint reverse transcription-PCR splicing assay is used to visualize and quantify the levels of the SMN2 full length and Δ7 mRNA in primary cells and cell lines containing the SMN2 gene treated with a test compound.
Protocol. GM03813 SMA patient cells (5,000 cells/well) are seeded in 200 μL of cell culture medium (DMEM plus 10% FBS) in 96-well flat-bottom plates and the plate is immediately swirled to ensure proper dispersal of cells, forming an even monolayer of cells. Cells are allowed to attach for at least 4-6 hrs. Test compounds are serially diluted 3.16-fold in 100% DMSO to generate a 7-point concentration curve. A solution of test compound (1 μL, 200× in DMSO) is added to each test well and 1 μL DMSO is added to each control well. The plate is incu bated for 24 hrs in a cell culture incubator (37° C., 5% CO2, 100% relative humidity). The cells are then lysed in Cells-To-Ct lysis buffer and the lysate is stored at −80° C.
SMN FL and Δ7 mRNA are identified using the following primers in Table 6. These primers hybridize to a nucleotide sequence in exon 6 (SMN Forward C, SEQ ID NO. 11) (nucleotide 43 to nucleotide 63) and exon 8 (SMN Reverse C, SEQ ID NO. 12) (nucleotide 51 to nucleotide 73) common to human SMN1 and SMN2 mRNA. Since the SMA patient cells used in Example 4 contain only the SMN2 gene, RT-PCR can visualize and quantify only SMN2 full-length and SMN2 Δ7 mRNA.
(§1) To synthesize cDNA, 5 μL of lysate, 4 μL of 5× iScript reaction mix, 1 μL of reverse transcriptase, and 10 μL of water are combined and incubated 5 min at 25° C. followed by 30 min at 42° C., followed by 5 min at 85° C. The cDNA solution is stored at −20° C.
To perform endpoint PCR, 5 μL of cDNA, 0.2 μL of 100 μM forward primer, 0.2 μL of 100 μM reverse primer, and 22.5 μL of polymerase super mix are combined in a 96 well semiskirted PCR plate. PCR is carried out at the following temperatures for the indicated time: Step 1: 94° C. (2 min), Step 2: 94° C. (30 sec), Step 3: 55° C. (30 sec), Step 4: 68° C. (1 min), then repeat Steps 2 to 4 for a total of 33 cycles, then hold at 4° C.
10 μL of each PCR sample is electrophoretically separated on a 2% agarose E-gel for 14 minutes stained with double-stranded DNA (dsDNA) staining reagents (e.g., ethidium bromide) and visualized using a gel imager.

Data set [2] relates to human SMN1 minigene full length and Δ7 mRNA (SMN1-A minigene). The data set can be described thus: Human SMN1 minigene mRNA end-point semi-quantitative RT-PCR splicing assay in cultured cells. Format: cell-based. The note with it: HEK293H cells transfected with SMN1-A minigene, 7 hour, increasing concentrations, FIG. 8.
Text: Human SMN1 Minigene mRNA End-Point Semi-Quantitative RT-PCR Splicing Assay in Cultured Cells
The RT-PCR assay is used to visualize and quantify the levels of the human SMN1 minigene full length and Δ7 mRNA in primary cells and cell lines expressing the human SMN1 minigene construct treated with a test compound.
Using the procedure for the preparation of the SMN2 minigene construct described in Biological Example 1, the SMN1 version of the minigene is generated by replacing the sixth nucleotide of exon 7 (a thymine residue) of the SMN2-A minigene construct to cytosine using site-directed mutagenesis. Thus, similar to the SMN2-A minigene construct, the SMN1 minigene construct has a single adenine residue inserted after nucleic residue 48 of exon 7. The SMN1 minigene construct is referred to as SMN1-A.
Protocol. HEK293H cells (10,000 cells/well/199 μL) were transfected, using FuGENE-6 reagent, in a 96-well plate with 15 ng of the SMN1-A minigene reporter plasmid per well. Cells were incubated for 24 hours following transfection. Test compounds were serially diluted 3.16-fold in 100% DMSO to generate a 7-point concentration curve. A solution of test compound (1 μL, 200× in DMSO) was added to each test well. 1 μL DMSO was added to each control well. The plate was incubated for 7 hours in a cell culture incubator (37° C., 5% CO2, 100% relative humidity). The cells were then lysed in Cells-To-Ct lysis buffer and the lysates were stored at −80° C.
Two SMN spliced mRNA are generated from the SMN1 minigene. The term “SMN1 minigene FL” refers to the first spliced product containing exon 7, corresponding to full length SMN1 mRNA. The term “SMN1 minigene Δ7” refers to the second product lacking exon 7.
SMN1 minigene FL and SMN1 minigene Δ7 mRNA are amplified using the primers in Table 11. Primer SMN Forward C (SEQ ID NO. 11) hybridizes to a nucleotide sequence in exon 6 (nucleotide 43 to nucleotide 63), primer SMN Reverse A (SEQ ID NO. 2) hybridizes to a nucleotide sequence in the coding sequence of Firefly luciferase. The combination of these two oligonucleotides detects only SMN1 or SMN2 minigenes (RT-PCR) and will not detect endogenous SMN1 or SMN2 genes. Since the HEK293H cells used in Example 16 were transfected with only the human SMN1 minigene, RT-PCR can visualize and quantify only SMN1 minigene FL and SMN1 minigene Δ7 mRNA.
as §1
To perform endpoint PCR, 5 μL of cDNA, 0.2 μL of 100 μM forward primer, 0.2 μL of 100 μM reverse primer, and 22.5 μL of polymerase super mix are combined in a 96 well semiskirted PCR plate. […]

“Also recorded” adds a separate entry of the source.

Take `C[C@@H]1CN(c2ccc3oc(-c4cn5ccccc5n4)cc(=O)c3c2)C[C@H](C)N1` [Cpd 17, 6-[(3R,5S)-3,5-dimethylpiperazin-1-yl]-2-(imidazo[1,2-a]pyridin-2-yl)-4H-chromen-4-one]: the melting point (in general, the temperature, or range, at which the solid turns liquid) lay within 208 to 210 °C. Moreover, in data set [1], the “SMN2 FL mRNA (gel band)” value is given as “progressively more SMN2 FL mRNA”, the “SMN2 Δ7 mRNA (gel band)” value is given as “less SMN2 Δ7 mRNA” and the SMN2 alternative splicing result is “correction of SMN2 alternative splicing”. Moreover, in data set [2], the “SMN1 minigene FL mRNA (gel band)” value was “progressively more SMN1 minigene FL mRNA; also recorded: dose dependent increase in SMN1 minigene full-length mRNA” and the “SMN1 minigene Δ7 mRNA (gel band)” value is “less SMN1 minigene Δ7 mRNA; also recorded: dose dependent decrease in SMN1 minigene Δ7 mRNA”.

Turning to `COc1ccc(-c2cc(=O)c3cc(N4CCN[C@@H](C)C4)ccc3o2)cc1F` [Cpd 38, 2-(3-fluoro-4-methoxyphenyl)-6-[(3S)-3-methylpiperazin-1-yl]-4H-chromen-4-one], the melting point is 100 to 102 °C. For the same molecule, in data set [1], the “SMN2 FL mRNA (gel band)” value is listed as “progressively more SMN2 FL mRNA”, the “SMN2 Δ7 mRNA (gel band)” value is listed as “less SMN2 Δ7 mRNA” and the SMN2 alternative splicing result is on record as “correction of SMN2 alternative splicing”. In data set [2], the “SMN1 minigene FL mRNA (gel band)” value was “progressively more SMN1 minigene FL mRNA; also recorded: dose dependent increase in SMN1 minigene full-length mRNA” and the “SMN1 minigene Δ7 mRNA (gel band)” value is “less SMN1 minigene Δ7 mRNA; also recorded: dose dependent decrease in SMN1 minigene Δ7 mRNA”.

The values above are taken from patent publication US9914722B2, “Compounds for treating spinal muscular atrophy” (PTC Therapeutics Inc., priority 2012, dated 2018).
